Measured values: publication PMC8213057, “Targeting ALK2: An Open Science Approach to Developing Therapeutics for the Treatment of Diffuse Intrinsic Pontine Glioma” (Journal of Medicinal Chemistry, 2020)
“And” between values parts separate entries of the source, which are not always exact repeats. Identical values can stand only once.

Experiments:
HGK/MAP4K4 = biological target: T1, HGK/MAP4K4 (Homo sapiens, UniProt O95819); test: 375-member kinase panel; format: biochemical; settings: Run 1, Run 2; for % enzyme activity: 1 μM; for remaining activity at 1 µM: read-out: % enzyme activity, 1 μM
T1 construct: purchased Reaction Biology Corporation

TNIK = biological target: T2, TNIK (Homo sapiens, UniProt Q9UKE5); test: 375-member kinase panel; format: biochemical; settings: Run 1, Run 2; for % enzyme activity: 1 μM
T2 construct: purchased Reaction Biology Corporation

CK1a1 = CK1a1 (Homo sapiens, UniProt P48729); settings: 1 μM; Run 1, Run 2
CK1a1L = biological target: T3, CK1a1L (Homo sapiens, UniProt Q8N752); settings: 1 μM; Run 1, Run 2
T3 sequence (Q8N752 1-337): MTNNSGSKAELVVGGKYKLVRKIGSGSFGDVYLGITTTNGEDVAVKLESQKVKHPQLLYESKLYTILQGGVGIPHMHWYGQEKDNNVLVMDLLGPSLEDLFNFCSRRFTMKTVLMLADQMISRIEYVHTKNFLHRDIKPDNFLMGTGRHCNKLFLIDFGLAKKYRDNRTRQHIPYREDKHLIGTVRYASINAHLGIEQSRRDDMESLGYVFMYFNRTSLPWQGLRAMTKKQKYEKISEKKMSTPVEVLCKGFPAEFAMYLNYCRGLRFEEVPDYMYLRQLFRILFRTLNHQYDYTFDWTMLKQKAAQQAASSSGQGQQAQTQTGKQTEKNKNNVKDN

ERK7/MAPK15 = biological target: T4, ERK7/MAPK15 (Homo sapiens, UniProt Q8TD08); settings: 1 μM; Run 1, Run 2
T4 sequence (Q8TD08 1-544): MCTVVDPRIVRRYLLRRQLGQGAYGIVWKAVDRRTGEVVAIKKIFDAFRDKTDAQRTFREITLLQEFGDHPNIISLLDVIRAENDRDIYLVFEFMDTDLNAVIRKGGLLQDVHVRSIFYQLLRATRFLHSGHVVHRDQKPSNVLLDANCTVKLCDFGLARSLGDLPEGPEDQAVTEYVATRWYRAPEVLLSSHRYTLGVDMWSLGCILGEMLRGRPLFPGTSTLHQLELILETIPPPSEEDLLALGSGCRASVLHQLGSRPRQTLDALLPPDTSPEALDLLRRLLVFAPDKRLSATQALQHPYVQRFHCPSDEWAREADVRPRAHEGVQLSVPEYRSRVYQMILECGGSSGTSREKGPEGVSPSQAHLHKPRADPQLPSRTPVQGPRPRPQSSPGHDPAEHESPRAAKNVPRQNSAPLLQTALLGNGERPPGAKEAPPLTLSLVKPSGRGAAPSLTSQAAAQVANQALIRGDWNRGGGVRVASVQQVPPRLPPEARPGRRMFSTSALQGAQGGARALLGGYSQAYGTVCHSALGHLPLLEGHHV

CAMKK1 = CAMKK1 (Homo sapiens, UniProt Q8N5S9); test: biochemical; settings: read-out: % enzyme activity, 1 μM; Run 1, Run 2
MUSK = biological target: T5, MUSK (Homo sapiens, UniProt O15146); test: biochemical; settings: read-out: % enzyme activity, 1 μM; Run 1, Run 2
T5 sequence (O15146 24-869): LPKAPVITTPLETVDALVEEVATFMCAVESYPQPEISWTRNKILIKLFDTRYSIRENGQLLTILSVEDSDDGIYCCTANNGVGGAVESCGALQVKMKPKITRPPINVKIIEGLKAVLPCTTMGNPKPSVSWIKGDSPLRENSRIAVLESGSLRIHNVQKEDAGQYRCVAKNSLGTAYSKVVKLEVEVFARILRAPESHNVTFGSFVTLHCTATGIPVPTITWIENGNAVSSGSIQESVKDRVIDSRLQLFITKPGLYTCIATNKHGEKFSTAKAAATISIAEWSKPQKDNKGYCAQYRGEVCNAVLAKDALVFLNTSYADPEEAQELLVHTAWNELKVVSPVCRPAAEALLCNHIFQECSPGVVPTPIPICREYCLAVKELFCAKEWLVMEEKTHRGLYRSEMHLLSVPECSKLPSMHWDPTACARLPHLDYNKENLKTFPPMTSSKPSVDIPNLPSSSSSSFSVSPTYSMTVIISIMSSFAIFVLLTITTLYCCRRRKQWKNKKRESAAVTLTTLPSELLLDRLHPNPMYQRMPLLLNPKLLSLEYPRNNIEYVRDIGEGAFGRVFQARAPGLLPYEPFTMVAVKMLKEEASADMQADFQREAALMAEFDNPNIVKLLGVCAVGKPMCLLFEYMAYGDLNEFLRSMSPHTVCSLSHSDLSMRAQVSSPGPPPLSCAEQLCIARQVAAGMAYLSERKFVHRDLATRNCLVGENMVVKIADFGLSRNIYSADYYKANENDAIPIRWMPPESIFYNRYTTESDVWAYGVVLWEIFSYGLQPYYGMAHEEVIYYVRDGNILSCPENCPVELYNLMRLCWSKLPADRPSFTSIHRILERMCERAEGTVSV

TAOK3/JIK = biological target: T6, TAOK3/JIK (Homo sapiens, UniProt Q9H2K8); test: biochemical; settings: read-out: % enzyme activity, 1 μM; Run 1, Run 2
T6 sequence (Q9H2K8 1-898): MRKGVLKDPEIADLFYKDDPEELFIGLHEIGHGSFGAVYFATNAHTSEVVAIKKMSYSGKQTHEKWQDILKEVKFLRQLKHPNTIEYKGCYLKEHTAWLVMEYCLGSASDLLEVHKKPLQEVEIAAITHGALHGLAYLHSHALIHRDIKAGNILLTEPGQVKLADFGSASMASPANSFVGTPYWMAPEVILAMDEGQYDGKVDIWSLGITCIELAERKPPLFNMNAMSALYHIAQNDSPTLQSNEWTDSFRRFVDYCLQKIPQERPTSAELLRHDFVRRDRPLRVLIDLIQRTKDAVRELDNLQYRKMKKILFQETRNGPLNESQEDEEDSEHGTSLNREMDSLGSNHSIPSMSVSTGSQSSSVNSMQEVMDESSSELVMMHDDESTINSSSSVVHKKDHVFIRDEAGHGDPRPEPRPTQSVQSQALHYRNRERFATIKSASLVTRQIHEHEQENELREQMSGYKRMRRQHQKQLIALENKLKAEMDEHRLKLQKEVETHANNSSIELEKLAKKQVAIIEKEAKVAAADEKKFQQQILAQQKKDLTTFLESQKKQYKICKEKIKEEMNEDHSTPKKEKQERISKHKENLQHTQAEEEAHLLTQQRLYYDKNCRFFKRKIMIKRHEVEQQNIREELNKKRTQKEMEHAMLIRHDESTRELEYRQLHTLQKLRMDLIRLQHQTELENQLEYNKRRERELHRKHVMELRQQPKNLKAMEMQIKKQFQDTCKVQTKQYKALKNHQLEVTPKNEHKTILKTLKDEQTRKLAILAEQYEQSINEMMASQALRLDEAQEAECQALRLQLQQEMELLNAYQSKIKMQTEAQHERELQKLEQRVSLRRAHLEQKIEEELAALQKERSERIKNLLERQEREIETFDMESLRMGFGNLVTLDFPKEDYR

T1 sequence (O95819 whole entry): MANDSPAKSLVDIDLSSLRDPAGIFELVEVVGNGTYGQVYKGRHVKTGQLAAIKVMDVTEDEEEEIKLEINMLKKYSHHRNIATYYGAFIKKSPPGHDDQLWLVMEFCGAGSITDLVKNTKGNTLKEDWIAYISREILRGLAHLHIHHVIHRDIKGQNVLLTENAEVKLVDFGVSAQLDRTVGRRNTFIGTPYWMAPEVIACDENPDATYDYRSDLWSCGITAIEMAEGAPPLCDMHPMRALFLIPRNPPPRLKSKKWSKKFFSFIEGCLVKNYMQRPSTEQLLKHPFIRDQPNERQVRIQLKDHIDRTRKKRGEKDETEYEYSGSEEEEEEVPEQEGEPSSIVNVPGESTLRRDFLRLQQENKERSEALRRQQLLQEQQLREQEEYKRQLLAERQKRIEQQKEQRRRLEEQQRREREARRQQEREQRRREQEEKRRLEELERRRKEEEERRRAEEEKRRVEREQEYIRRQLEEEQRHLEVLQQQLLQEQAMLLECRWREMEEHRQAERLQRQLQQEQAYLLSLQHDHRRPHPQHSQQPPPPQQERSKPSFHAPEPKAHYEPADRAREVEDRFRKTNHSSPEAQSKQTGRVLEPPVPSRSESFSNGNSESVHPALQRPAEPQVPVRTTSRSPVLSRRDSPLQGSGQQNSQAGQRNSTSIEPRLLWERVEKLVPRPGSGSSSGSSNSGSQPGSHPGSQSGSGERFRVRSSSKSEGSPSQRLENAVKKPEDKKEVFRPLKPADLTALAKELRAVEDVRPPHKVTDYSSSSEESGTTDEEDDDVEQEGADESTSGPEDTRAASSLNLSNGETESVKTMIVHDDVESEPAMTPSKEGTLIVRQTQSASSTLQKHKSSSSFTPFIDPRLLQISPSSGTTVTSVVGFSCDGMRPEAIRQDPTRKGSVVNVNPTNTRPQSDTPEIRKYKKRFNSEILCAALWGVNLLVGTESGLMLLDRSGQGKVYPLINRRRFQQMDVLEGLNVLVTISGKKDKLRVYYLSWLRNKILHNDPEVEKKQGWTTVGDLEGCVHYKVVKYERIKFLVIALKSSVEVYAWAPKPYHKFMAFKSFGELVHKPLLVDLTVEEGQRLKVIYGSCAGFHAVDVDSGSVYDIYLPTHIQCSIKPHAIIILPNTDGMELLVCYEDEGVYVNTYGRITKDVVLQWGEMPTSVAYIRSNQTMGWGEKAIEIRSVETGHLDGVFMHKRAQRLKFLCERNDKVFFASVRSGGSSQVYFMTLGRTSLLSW
T2 sequence (Q9UKE5 whole entry): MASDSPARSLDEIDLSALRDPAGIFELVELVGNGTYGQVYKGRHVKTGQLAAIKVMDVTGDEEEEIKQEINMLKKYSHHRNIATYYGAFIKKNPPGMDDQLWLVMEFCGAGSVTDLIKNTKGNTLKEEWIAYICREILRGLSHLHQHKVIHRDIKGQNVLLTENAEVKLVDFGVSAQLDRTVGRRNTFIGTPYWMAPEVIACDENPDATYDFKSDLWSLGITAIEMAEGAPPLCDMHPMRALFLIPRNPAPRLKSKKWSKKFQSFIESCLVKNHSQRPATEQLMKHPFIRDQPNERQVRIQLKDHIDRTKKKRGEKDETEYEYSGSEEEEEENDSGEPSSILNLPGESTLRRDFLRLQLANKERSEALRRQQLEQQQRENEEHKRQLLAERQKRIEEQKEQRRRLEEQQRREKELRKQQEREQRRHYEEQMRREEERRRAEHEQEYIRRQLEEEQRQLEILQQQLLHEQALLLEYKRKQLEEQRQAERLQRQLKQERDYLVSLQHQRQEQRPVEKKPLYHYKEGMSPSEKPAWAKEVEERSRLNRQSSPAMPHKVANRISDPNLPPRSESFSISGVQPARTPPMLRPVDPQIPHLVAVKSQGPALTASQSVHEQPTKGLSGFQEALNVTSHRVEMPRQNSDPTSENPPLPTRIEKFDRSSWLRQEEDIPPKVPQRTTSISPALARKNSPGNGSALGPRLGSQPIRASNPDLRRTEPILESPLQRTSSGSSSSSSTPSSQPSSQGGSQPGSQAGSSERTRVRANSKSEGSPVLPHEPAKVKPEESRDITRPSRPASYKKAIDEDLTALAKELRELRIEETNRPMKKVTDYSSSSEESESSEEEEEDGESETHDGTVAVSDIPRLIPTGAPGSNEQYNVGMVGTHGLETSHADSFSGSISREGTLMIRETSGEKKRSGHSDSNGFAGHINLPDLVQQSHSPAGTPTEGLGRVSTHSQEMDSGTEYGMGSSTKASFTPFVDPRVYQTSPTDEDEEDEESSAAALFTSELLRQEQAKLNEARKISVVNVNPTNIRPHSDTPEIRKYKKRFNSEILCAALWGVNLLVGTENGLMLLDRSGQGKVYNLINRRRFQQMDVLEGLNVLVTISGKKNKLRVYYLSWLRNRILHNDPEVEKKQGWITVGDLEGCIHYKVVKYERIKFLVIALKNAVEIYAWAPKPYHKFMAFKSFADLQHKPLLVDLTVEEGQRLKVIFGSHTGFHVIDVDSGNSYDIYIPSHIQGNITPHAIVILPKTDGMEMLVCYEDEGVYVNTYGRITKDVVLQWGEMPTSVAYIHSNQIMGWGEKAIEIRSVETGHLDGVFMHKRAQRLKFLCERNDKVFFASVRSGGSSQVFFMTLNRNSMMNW
Chain of CAMKK1 (Q8N5S9 whole entry): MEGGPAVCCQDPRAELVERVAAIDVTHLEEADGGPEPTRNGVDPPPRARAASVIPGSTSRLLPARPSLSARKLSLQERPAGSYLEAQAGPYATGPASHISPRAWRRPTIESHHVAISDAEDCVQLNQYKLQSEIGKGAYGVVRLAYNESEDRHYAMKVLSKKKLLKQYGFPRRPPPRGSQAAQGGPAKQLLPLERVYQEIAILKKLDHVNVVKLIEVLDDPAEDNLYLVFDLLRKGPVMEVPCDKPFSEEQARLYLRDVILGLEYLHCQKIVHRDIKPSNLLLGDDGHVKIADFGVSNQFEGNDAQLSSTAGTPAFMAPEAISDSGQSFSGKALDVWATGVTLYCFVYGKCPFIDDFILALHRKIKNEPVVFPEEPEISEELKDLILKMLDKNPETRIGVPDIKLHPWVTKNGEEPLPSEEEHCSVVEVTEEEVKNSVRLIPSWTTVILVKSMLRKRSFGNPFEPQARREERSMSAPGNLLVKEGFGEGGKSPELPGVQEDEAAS
Chain of CK1a1 (P48729 whole entry): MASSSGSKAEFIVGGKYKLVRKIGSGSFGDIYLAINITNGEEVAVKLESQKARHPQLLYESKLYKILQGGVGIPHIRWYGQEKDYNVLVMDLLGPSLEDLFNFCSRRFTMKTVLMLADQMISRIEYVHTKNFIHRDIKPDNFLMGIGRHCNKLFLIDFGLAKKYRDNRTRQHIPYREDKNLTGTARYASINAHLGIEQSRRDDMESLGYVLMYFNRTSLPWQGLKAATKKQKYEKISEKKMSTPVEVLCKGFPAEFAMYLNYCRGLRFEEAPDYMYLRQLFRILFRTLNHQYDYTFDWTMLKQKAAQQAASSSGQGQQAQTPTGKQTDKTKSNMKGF

Row | Structure (SMILES) | % enzyme activity (HGK/MAP4K4) | remaining activity at 1 µM (HGK/MAP4K4) | % enzyme activity (TNIK) | remaining activity at 1 µM (TNIK; read-out: % enzyme activity, 1 μM) | % enzyme activity (CK1a1) | % enzyme activity (CK1a1L) | % enzyme activity (ERK7/MAPK15) | remaining activity at 1 µM (CAMKK1) | remaining activity at 1 µM (MUSK) | remaining activity at 1 µM (TAOK3/JIK)
1 | COc1cc(-c2cncc(-c3ccc(N4C[C@@H](C)N(C)[C@@H](C)C4)cc3)c2C)cc(F)c1C(N)=O [Compound 26c, 2-Fluoro-6-methoxy-4-(4-methyl-5-(4-((3R,5S)-3,4,5-trimethylpiperazin-1-yl)phenyl)pyridin-3-yl)benzamide] | 28.35% | 30.6% | 3.92% | 4.85% | 99.44% | 99.15% | 96.45% | 94% | 92.2% | 84.5%
2 | COc1cc(-c2cncc(-c3ccc(N4CCN(C)CC4)cc3)c2C)cc(F)c1C(N)=O [Compound 26a, 2-Fluoro-6-methoxy-4-(4-methyl-5-(4-(4-methylpiperazin-1-yl)phenyl)pyridin-3-yl)benzamide] | 20.97% | 22% | -0.77% and -2.62% | – | 91.31% | 97.55% | 85.69% | 94.7% | 92.8% | 69.7%
